Converted amounts (≈) assume the structure as drawn. Read-outs that look alike come from different tables or passages of the source.
Assays:
[1] = tested on: Plasmodium falciparum; conditions: literature report; cited from earlier work
[2] = tested on: hVISA MRSA isolates (n = 54); assay: MIC by BMD, MRSA isolates of hVISA phenotype; type: cell-based; conditions: Staphylococcus aureus, hVISA isolates (n = 54)
Protocol: (§1) One-hundred and three MRSA bacteraemia isolates (from Liverpool Hospital, Sydney, Australia) were selected for this study. BDM-I MICs were determined by the broth microdilution method (BMD) as described by the CLSI (Clinical Laboratory Standards Institute, Methods for Dilution Antimicrobial Susceptibility Tests for Bacteria That Grow Aerobically: Ninth Edition: Approved Standard M07-A9, CLSI, Wayne, Pa., USA, 2012) using CAMHB (Oxoid-Thermo Fisher, Hampshire, UK). BDM-I concentrations ranged from 1 to 10 mg/L in 1 mg/L increments. All isolates had previously undergone vancomycin MIC testing and hVISA/VISA characterization (van Hal, Barbagiannakos et al., 2011; van Hal, Jones et al., 2011). Statistical analysis to determine correlation between variables was completed using the Spearman's test; with P<0.05 considered significant. Calculations were completed using SPSS statistical software (version 22.0; SPSS Inc, Chicago, Ill., USA).
(§2) The BDM-I MICs for a collection of clinical MRSA isolates, with varying vancomycin susceptibilities, were determined using the BMD method.

[3] = tested on: chickens; conditions: in vivo; cited from earlier work
[4] = tested on: MRSA bacteraemia isolates; assay: BDM-I MIC by broth microdilution (BMD), collection of clinical MRSA isolates; type: cell-based, Staphylococcus aureus; conditions: clinical MRSA isolates with varying vancomycin susceptibilities
Protocol: as §1, §2

[5] = tested on: mice; conditions: mouse, in vivo; cited from earlier work
[6] = tested on: VISA MRSA isolates (n = 6); assay: MIC by BMD, MRSA isolates of VISA phenotype; type: cell-based; conditions: Staphylococcus aureus, VISA isolates (n = 6)
Protocol: as §1, §2

[7] = tested on: many Gram-negative and most Gram-positive bacterial species as well as many fungal species; conditions: literature report; cited from earlier work
[8] = tested on: MRSA isolate Sa375 (VISA); assay: microbe, parasite or virus in culture; type: cell-based, Staphylococcus aureus; conditions: for MIC: Staphylococcus aureus
[9] = in vivo; cited from earlier work
[10] = tested on: Mycobacterium tuberculosis; conditions: literature report; cited from earlier work
[11] = tested on: vanB VRE clinical isolates; assay: BDM-I and vancomycin checkerboard assay (broth microdilution, FICI); type: cell-based, Enterococcus faecium; conditions: vancomycin combined with BDM-I at fixed concentrations, vanB VRE isolate; FICI ≤0.5 indicates synergy
[12] = tested on: VSSA MRSA isolates (n = 43); assay: MIC by BMD, MRSA isolates of VSSA phenotype; type: cell-based; conditions: Staphylococcus aureus, VSSA isolates (n = 43)
Protocol: as §1, §2

[13] = tested on: vancomycin-resistant S. aureus (VRSA) strain; conditions: first VRSA strain, United States 2002; cited from earlier work
[14] = tested on: VSSA MRSA isolates (n = 43); conditions: VSSA isolates (n = 43), BMD, previously determined; cited from earlier work
[15] = tested on: VISA MRSA isolates (n = 6); conditions: VISA isolates (n = 6), BMD, previously determined; cited from earlier work
[16] = tested on: hVISA MRSA isolates (n = 54); conditions: hVISA isolates (n = 54), BMD, previously determined; cited from earlier work
[17] = tested on: vancomycin intermediate-resistant S. aureus (VISA); conditions: MRSA isolate reported in Japan in 1997 (VISA); cited from earlier work

Q: Which results are given for C/C(=C\c1ccc2c(c1)OCO2)[N+](=O)[O-] [BDM-I, 3,4-methylenedioxy-β-methyl-β-nitrostyrene]?
A: Activity against Plasmodium falciparum [1]: active; MIC50 ([2]; read-out: BDM-I MIC50): 1.64 µg/mL (≈ 7.92 µM); MIC ([2]; read-out: BDM-I MIC (average)): 3.28 µg/mL (≈ 15.8 µM); Oral toxicity [3]: low oral toxicity; BDM-I MIC (range over isolates) [4]: 2 to 5 µg/mL; Oral toxicity [5]: low oral toxicity; MIC50 ([6]; read-out: BDM-I MIC50): 1.25 µg/mL (≈ 6.03 µM); MIC ([6]; read-out: BDM-I MIC (average)): 2.5 µg/mL (≈ 12.1 µM); Antimicrobial spectrum [7]: broadly microbicidal; BDM-I MIC increase ([8]; Sa375, day 110 vs start, 21 out of 21 colonies): 3 µg/mL; MIC ([8]; read-out: BDM-I MIC, Sa375 before passage in BDM-I): 2 µg/mL (≈ 9.65 µM); MIC ([8]; read-out: BDM-I MIC, Sa375 day 110 colonies (21 out of 21)): 5 µg/mL (≈ 24.1 µM); Absorption from the intestinal tract [9]: poorly absorbed; Activity against Mycobacterium tuberculosis [10]: active; Interaction with vancomycin (checkerboard, FICI) [11]: synergistic activity; MIC50 ([12]; read-out: BDM-I MIC50): 1.71 µg/mL (≈ 8.25 µM); MIC ([12]; read-out: BDM-I MIC (average)): 3.42 µg/mL (≈ 16.5 µM)

Q: Which results are given for CN[C@H](CC(C)C)C(=O)N[C@H]1C(=O)N[C@@H](CC(N)=O)C(=O)N[C@H]2C(=O)N[C@H]3C(=O)N[C@H](C(=O)N[C@H](C(=O)O)c4cc(O)cc(O)c4-c4cc3ccc4O)[C@H](O)c3ccc(c(Cl)c3)Oc3cc2cc(c3O[C@@H]2O[C@H](CO)[C@@H](O)[C@H](O)[C@H]2O[C@H]2C[C@](C)(N)[C@H](O)[C@H](C)O2)Oc2ccc(cc2Cl)[C@H]1O [Vancomycin]?
A: vancomycin MIC [13]: greater than 100 μg/mL; Vancomycin MIC50 [14]: 0.58 µg/mL; Vancomycin MIC (average) [14]: 1.16 µg/mL; MIC ([8]; read-out: Vancomycin MIC): 4 µg/mL (≈ 2.76 µM); Vancomycin MIC50 [15]: 1.1 µg/mL; Vancomycin MIC (average) [15]: 2.2 µg/mL; Vancomycin MIC50 [16]: 0.96 µg/mL; Vancomycin MIC (average) [16]: 1.92 µg/mL; vancomycin MIC [17]: 3 to 8 µg/mL

Source: US20200237717A1, “Treatment of Staphylococcal and Enterococcal Infections Using Substituted Nitrostyrene Compounds” (Opal Biosciences Limited, priority 2017, published 2020)
